# Measured values from article PMC9061857, “A fluorogenic probe for granzyme B enables in-biopsy evaluation and screening of response to anticancer immunotherapies” (Nature Communications, 2022).
# Where no end group is shown, it is not given here.
# Assays:
# mKate-E0771 cells = assay: MTT cell viability assay; format: cell-based, mouse; settings: 1 h; for Cell viability (MTT), normalized to untreated cells: 37 °C
# Description: Supplementary Figure 9. Cell viability assays in mKate-E0771 cancer cells. mKate-E0771 cells were plated in 96-well plates (50,000 cells well-1) and incubated at the […]
# Cell viability was determined using a commercially available MTT kit (Invitrogen) with values normalized to untreated cells.
# Data presented as mean values±SEM (2 independent experiments with 3 replicates for each). P values were obtained from ONE-ANOVA tests with multiple comparisons.
# (§1) Source data provided as a Source Data file.
# (§2) (1 picture or pasted object on this page, not shown here)
# human GzmB (hGzmB) = molecular target: T1, human GzmB (hGzmB) (Homo sapiens, UniProt P10144); assay: HPLC conversion of fluorogenic peptides by hGzmB; format: biochemical
# T1 construct: For active GzmB vs pro-GzmB, p < 0.0001
# T1 sequence (P10144 21-247): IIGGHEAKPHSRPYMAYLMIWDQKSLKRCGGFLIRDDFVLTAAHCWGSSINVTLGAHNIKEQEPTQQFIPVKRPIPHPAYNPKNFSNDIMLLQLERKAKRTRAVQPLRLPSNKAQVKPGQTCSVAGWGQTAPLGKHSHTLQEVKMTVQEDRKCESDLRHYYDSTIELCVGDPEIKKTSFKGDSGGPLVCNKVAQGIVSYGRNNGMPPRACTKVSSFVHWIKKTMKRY
# Description: Supplementary Figure 1. Reactivity of fluorogenic substrates against human GzmB and limits of detection. a) Reaction conversion rates (by HPLC-UV detection at 350 nm) for Ac-IEPD-AMC (50 μM) in TRIS buffer (see Methods) at 37 °C containing different concentrations of hGzmB. Data presented as mean values±SEM (n=3 independent biological experiments). b) Reaction conversion rates (by HPLC-UV detection at 500 nm) for the tetrapeptide T1 (25 μM) in TRIS buffer at 37 °C containing different concentrations of hGzmB. Data presented as mean values±SEM (3 independent biological experiments).
# as §1, §2
# Supplementary Table 1. Chemical structures and reactivity of FRET-based tetrapeptides against human GzmB.
# Code Structure Linker Quencher HPLC conversion HPLC conversion […]
# Supplementary Table 2. Sequences and reactivity of FRET-based hexapeptides against […]
# Code Peptide sequence HPLC conversion
# H1 Ile-Glu-Pro-Asp-Ala-Gly 75%
# H2 Ile-Glu-Pro-Asp-Ser-Gly 80%
# H3 Ile-Glu-Pro-Asp-Ser-Leu 80%
# H4 Ile-Glu-Pro-Asp-Trp-Leu 82%
# H6 Ile-Glu-Pro-Asp-Trp-Arg 40%
# H7 Ile-Glu-Pro-Asp-Arg-Leu 60%
# H5m Ile-Glu-Phe-Asp-Ala-Leu 70%
# OVA-EL4 cancer cells = assay: Time-course flow cytometry of OVA-EL4 cancer cells with OT-I CD8+ T cells; format: cell-based; set-up: unit not given here; settings: H5 10 μM, Sytox Blue 1 μM
# From the text: Legends: viable (gray), H5-stained (green), apoptotic (red). […] Black arrows highlight T cells, yellow arrows highlight H5-stained intracellular GzmB puncta. […] Scale bar: 10 μm. f Flow cytometric analysis of OVA-EL4 cancer cells from experiments in e. Data as means ± SEM (n = 3). P-values from two-tailed t-tests. Source data (c, f) provided as a Source Data file.
# We utilized CD8+ T cells expressing the OT-I transgenic receptor, which specifically targets cells presenting the OVA-derived […] antigen in the context of H-2kb and co-cultured them with […]-pulsed EL4 cancer cells (Fig. S11). T cells were counterstained with Cell Tracker Orange for ease of identification and incubated with probe H5 and the cell death marker Sytox Blue before time-lapse microscopy.
substance,measurement,setting,value
"IEPDAL [H5, FRET hexapeptide IEPDAL with BODIPY-FL fluorophore at the N-terminal end and Dabcyl quencher]","Cell viability (MTT), normalized to untreated cells","mKate-E0771 cells; H5 3.1 (head prints mM), Data 1",107%
same,"Cell viability (MTT), normalized to untreated cells","mKate-E0771 cells; H5 3.1 (head prints mM), Data 2",102%
same,"Cell viability (MTT), normalized to untreated cells","mKate-E0771 cells; H5 3.1 (head prints mM), Data 3",89%
same,"Cell viability (MTT), normalized to untreated cells","mKate-E0771 cells; H5 3.1 (head prints mM), Data 4",85%
same,"Cell viability (MTT), normalized to untreated cells","mKate-E0771 cells; H5 3.1 (head prints mM), Data 5",94%
same,"Cell viability (MTT), normalized to untreated cells","mKate-E0771 cells; H5 3.1 (head prints mM), Data 6",89%
same,"Cell viability (MTT), normalized to untreated cells","mKate-E0771 cells; H5 6.3 (head prints mM), Data 1",99%
same,"Cell viability (MTT), normalized to untreated cells","mKate-E0771 cells; H5 6.3 (head prints mM), Data 2",93%
same,"Cell viability (MTT), normalized to untreated cells","mKate-E0771 cells; H5 6.3 (head prints mM), Data 3",97%
same,"Cell viability (MTT), normalized to untreated cells","mKate-E0771 cells; H5 6.3 (head prints mM), Data 4",95%
same,"Cell viability (MTT), normalized to untreated cells","mKate-E0771 cells; H5 6.3 (head prints mM), Data 5",89%
same,"Cell viability (MTT), normalized to untreated cells","mKate-E0771 cells; H5 6.3 (head prints mM), Data 6",90%
same,"Cell viability (MTT), normalized to untreated cells","mKate-E0771 cells; H5 12.5 (head prints mM), Data 1",107%
same,"Cell viability (MTT), normalized to untreated cells","mKate-E0771 cells; H5 12.5 (head prints mM), Data 2",106%
same,"Cell viability (MTT), normalized to untreated cells","mKate-E0771 cells; H5 12.5 (head prints mM), Data 3",99%
same,"Cell viability (MTT), normalized to untreated cells","mKate-E0771 cells; H5 12.5 (head prints mM), Data 4",96%
same,"Cell viability (MTT), normalized to untreated cells","mKate-E0771 cells; H5 12.5 (head prints mM), Data 5",84%
same,"Cell viability (MTT), normalized to untreated cells","mKate-E0771 cells; H5 12.5 (head prints mM), Data 6",88%
same,"Cell viability (MTT), normalized to untreated cells","mKate-E0771 cells; H5 25 (head prints mM), Data 1",107%
same,"Cell viability (MTT), normalized to untreated cells","mKate-E0771 cells; H5 25 (head prints mM), Data 2",102%
same,"Cell viability (MTT), normalized to untreated cells","mKate-E0771 cells; H5 25 (head prints mM), Data 3",99%
same,"Cell viability (MTT), normalized to untreated cells","mKate-E0771 cells; H5 25 (head prints mM), Data 4",76%
same,"Cell viability (MTT), normalized to untreated cells","mKate-E0771 cells; H5 25 (head prints mM), Data 5",81%
same,"Cell viability (MTT), normalized to untreated cells","mKate-E0771 cells; H5 25 (head prints mM), Data 6",81%
same,cytotoxicity,"mKate-E0771 cells; MTT, 37 °C (Fig. S9)",not cytotoxic
same,time to complete cleavage,human GzmB (hGzmB); 20 nM hGzmB,less than 30 min
same,"HPLC conversion (20 nM hGzmB, 2 h)","human GzmB (hGzmB); probe 25 μM (Ac-IEPD-AMC 50 μM), TRIS buffer, 37 °C, HPLC-UV",100%
same,H5+DAPI+ OVA-EL4 cancer cells,"OVA-EL4 cancer cells; 0 h, Data 1",0.47
same,H5+DAPI- OVA-EL4 cancer cells,"OVA-EL4 cancer cells; 0 h, Data 1",1.17
same,H5-DAPI+ OVA-EL4 cancer cells,"OVA-EL4 cancer cells; 0 h, Data 1",0.04
same,H5+DAPI+ OVA-EL4 cancer cells,"OVA-EL4 cancer cells; 0 h, Data 2",0.46
same,H5+DAPI- OVA-EL4 cancer cells,"OVA-EL4 cancer cells; 0 h, Data 2",0.35
same,H5-DAPI+ OVA-EL4 cancer cells,"OVA-EL4 cancer cells; 0 h, Data 2",0.011
same,H5+DAPI+ OVA-EL4 cancer cells,"OVA-EL4 cancer cells; 0 h, Data 3",0.43
same,H5+DAPI- OVA-EL4 cancer cells,"OVA-EL4 cancer cells; 0 h, Data 3",0.23
same,H5-DAPI+ OVA-EL4 cancer cells,"OVA-EL4 cancer cells; 0 h, Data 3",0.00
same,H5+DAPI+ OVA-EL4 cancer cells,"OVA-EL4 cancer cells; 1 h, Data 1",0.60
same,H5+DAPI- OVA-EL4 cancer cells,"OVA-EL4 cancer cells; 1 h, Data 1",1.57
same,H5-DAPI+ OVA-EL4 cancer cells,"OVA-EL4 cancer cells; 1 h, Data 1",0.03
same,H5+DAPI+ OVA-EL4 cancer cells,"OVA-EL4 cancer cells; 1 h, Data 2",0.80
same,H5+DAPI- OVA-EL4 cancer cells,"OVA-EL4 cancer cells; 1 h, Data 2",1.83
same,H5-DAPI+ OVA-EL4 cancer cells,"OVA-EL4 cancer cells; 1 h, Data 2",0.053
same,H5+DAPI+ OVA-EL4 cancer cells,"OVA-EL4 cancer cells; 1 h, Data 3",0.49
same,H5+DAPI- OVA-EL4 cancer cells,"OVA-EL4 cancer cells; 1 h, Data 3",1.53
same,H5-DAPI+ OVA-EL4 cancer cells,"OVA-EL4 cancer cells; 1 h, Data 3",0.026
same,H5+DAPI+ OVA-EL4 cancer cells,"OVA-EL4 cancer cells; 2 h, Data 1",0.82
same,H5+DAPI- OVA-EL4 cancer cells,"OVA-EL4 cancer cells; 2 h, Data 1",3.01
same,H5-DAPI+ OVA-EL4 cancer cells,"OVA-EL4 cancer cells; 2 h, Data 1",0.047
same,H5+DAPI+ OVA-EL4 cancer cells,"OVA-EL4 cancer cells; 2 h, Data 2",0.66
same,H5+DAPI- OVA-EL4 cancer cells,"OVA-EL4 cancer cells; 2 h, Data 2",2.90
same,H5-DAPI+ OVA-EL4 cancer cells,"OVA-EL4 cancer cells; 2 h, Data 2",0.06
same,H5+DAPI+ OVA-EL4 cancer cells,"OVA-EL4 cancer cells; 2 h, Data 3",0.58
same,H5+DAPI- OVA-EL4 cancer cells,"OVA-EL4 cancer cells; 2 h, Data 3",2.81
same,H5-DAPI+ OVA-EL4 cancer cells,"OVA-EL4 cancer cells; 2 h, Data 3",0.038
same,H5+DAPI+ OVA-EL4 cancer cells,"OVA-EL4 cancer cells; 3 h, Data 1",2.18
same,H5+DAPI- OVA-EL4 cancer cells,"OVA-EL4 cancer cells; 3 h, Data 1",2.12
same,H5-DAPI+ OVA-EL4 cancer cells,"OVA-EL4 cancer cells; 3 h, Data 1",0.05
same,H5+DAPI+ OVA-EL4 cancer cells,"OVA-EL4 cancer cells; 3 h, Data 2",1.34
same,H5+DAPI- OVA-EL4 cancer cells,"OVA-EL4 cancer cells; 3 h, Data 2",2.16
same,H5-DAPI+ OVA-EL4 cancer cells,"OVA-EL4 cancer cells; 3 h, Data 2",0.07
same,H5+DAPI+ OVA-EL4 cancer cells,"OVA-EL4 cancer cells; 3 h, Data 3",1.51
same,H5+DAPI- OVA-EL4 cancer cells,"OVA-EL4 cancer cells; 3 h, Data 3",1.83
same,H5-DAPI+ OVA-EL4 cancer cells,"OVA-EL4 cancer cells; 3 h, Data 3",0.06
same,H5+DAPI+ OVA-EL4 cancer cells,"OVA-EL4 cancer cells; 4 h, Data 1",3.60
same,H5+DAPI- OVA-EL4 cancer cells,"OVA-EL4 cancer cells; 4 h, Data 1",0.63
same,H5-DAPI+ OVA-EL4 cancer cells,"OVA-EL4 cancer cells; 4 h, Data 1",0.09
same,H5+DAPI+ OVA-EL4 cancer cells,"OVA-EL4 cancer cells; 4 h, Data 2",3.55
same,H5+DAPI- OVA-EL4 cancer cells,"OVA-EL4 cancer cells; 4 h, Data 2",0.46
same,H5-DAPI+ OVA-EL4 cancer cells,"OVA-EL4 cancer cells; 4 h, Data 2",0.05
same,H5+DAPI+ OVA-EL4 cancer cells,"OVA-EL4 cancer cells; 4 h, Data 3",2.80
same,H5+DAPI- OVA-EL4 cancer cells,"OVA-EL4 cancer cells; 4 h, Data 3",0.60
same,H5-DAPI+ OVA-EL4 cancer cells,"OVA-EL4 cancer cells; 4 h, Data 3",0.026
same,H5+DAPI+ OVA-EL4 cancer cells,"OVA-EL4 cancer cells; 5 h, Data 1",8.18
same,H5+DAPI- OVA-EL4 cancer cells,"OVA-EL4 cancer cells; 5 h, Data 1",0.17
same,H5-DAPI+ OVA-EL4 cancer cells,"OVA-EL4 cancer cells; 5 h, Data 1",0.053
same,H5+DAPI+ OVA-EL4 cancer cells,"OVA-EL4 cancer cells; 5 h, Data 2",8.22
same,H5+DAPI- OVA-EL4 cancer cells,"OVA-EL4 cancer cells; 5 h, Data 2",0.12
same,H5-DAPI+ OVA-EL4 cancer cells,"OVA-EL4 cancer cells; 5 h, Data 2",0.10
same,H5+DAPI+ OVA-EL4 cancer cells,"OVA-EL4 cancer cells; 5 h, Data 3",16.90
same,H5+DAPI- OVA-EL4 cancer cells,"OVA-EL4 cancer cells; 5 h, Data 3",0.10
same,H5-DAPI+ OVA-EL4 cancer cells,"OVA-EL4 cancer cells; 5 h, Data 3",0.14
same,H5+DAPI+ OVA-EL4 cancer cells,"OVA-EL4 cancer cells; 6 h, Data 1",11.60
same,H5+DAPI- OVA-EL4 cancer cells,"OVA-EL4 cancer cells; 6 h, Data 1",0.09
same,H5-DAPI+ OVA-EL4 cancer cells,"OVA-EL4 cancer cells; 6 h, Data 1",0.10
same,H5+DAPI+ OVA-EL4 cancer cells,"OVA-EL4 cancer cells; 6 h, Data 2",10.50
same,H5+DAPI- OVA-EL4 cancer cells,"OVA-EL4 cancer cells; 6 h, Data 2",0.11
same,H5-DAPI+ OVA-EL4 cancer cells,"OVA-EL4 cancer cells; 6 h, Data 2",0.10
same,H5+DAPI+ OVA-EL4 cancer cells,"OVA-EL4 cancer cells; 6 h, Data 3",18.10
same,H5+DAPI- OVA-EL4 cancer cells,"OVA-EL4 cancer cells; 6 h, Data 3",0.076
same,H5-DAPI+ OVA-EL4 cancer cells,"OVA-EL4 cancer cells; 6 h, Data 3",0.07
